The source of these data is ChEMBL document CHEMBL5038655, “Development of Novel Dihydrofuro[3,4-d]pyrimidine Derivatives as HIV-1 NNRTIs to Overcome the Highly Resistant Mutant Strains F227L/V106A and K103N/Y181C” (J Med Chem, 2022).

A word on the IC50: it is the point on the concentration scale where inhibition reaches its midpoint. Higher therefore signals lower potency. What is called solubility is the dissolved amount per volume that the medium holds. The low end stands for a poorly soluble substance, the high end for a readily soluble substance. As a reminder, the EC50 is the concentration giving half of the maximal effect. As a reminder, the CC50 is the concentration that lowers cell viability or growth by half.

Series [1] deals with Human immunodeficiency virus type 1 reverse transcriptase (Human immunodeficiency virus 1, UniProt Q72547). Description: Inhibition of wild type HIV-1 reverse transcriptase using biotin-labelled dNTPs as substrate incubated for 2 hrs by ELISA.
Series [2] in a line: Aqueous solubility of the compound at pH 7.0 by HPLC analysis. Format: physicochemical. The conditions noted are these: buffer.
Series [3] can be described thus: Aqueous solubility of the compound at pH 7.4 by HPLC analysis. The class given is physicochemical. The conditions noted are these: buffer.
The nature of series [4]: Selectivity index, ratio of CC50 for human MT4 cells to EC50 for antiviral activity against HIV-1 IIIB infected in human MT4 cells. The class given is toxicity, cell-based. The conditions noted are these: MT4 cells (uninfected and infected with HIV-1 IIIB), read-out: Ratio CC50/EC50.
Series [5] has as its system Human immunodeficiency virus 1. Nature of the series: Antiviral activity against HIV-1 IIIB infected in human MT4 cells assessed as protection against virus-induced cytotoxicity incubated for 5 days by MTT assay. Format: functional, organism-based. The conditions noted are these: Human immunodeficiency virus 1, IIIB, MT4, 120 h.
Series [6] deals with Human immunodeficiency virus 1. Nature of the series: Antiviral activity against HIV-1 IIIB harboring K103N/Y181C double mutant infected in human MT4 cells assessed as protection against virus-induced cytotoxicity incubated for 5 days by MTT assay. The class given is functional, organism-based. The conditions noted are these: Human immunodeficiency virus 1, IIIB, MT4, 120 h. (Tetrazolium assays rely on reduction of a dye to a coloured formazan, in cell work by metabolically active cells.)

The nature of series [7]: Cytotoxicity against human MT4 cells assessed as reduction in cell viability incubated for 5 days by MTT assay. The class given is toxicity, cell-based. The conditions noted are these: time 5 day.
A short description of series [8]: Selectivity index, ratio of CC50 for human MT4 cells to EC50 for antiviral activity against HIV-1 IIIB harboring K103N/Y181C double mutant infected in human MT4 cells. The class given is toxicity, cell-based. The following applies: read-out: Ratio CC50/EC50.
Series [9] deals with Human immunodeficiency virus 1. Nature of the series: Antiviral activity against HIV-1 harboring reverse transcriptase Y188L mutant infected in human MT4 cells assessed as protection against virus-induced cytopathic effect incubated for 5 days by MTT assay. The conditions noted are these: Human immunodeficiency virus 1, MT4, 120 h. In general terms: Protection from cytopathic effect is a common read-out in antiviral testing.

The subject of series [10] is Human immunodeficiency virus 1. Nature of the series: Antiviral activity against HIV-1 harboring reverse transcriptase F227L/V106A mutant infected in human MT4 cells assessed as protection against virus-induced cytopathic effect incubated for 5 days by MTT assay. The following applies: Human immunodeficiency virus 1, MT4, 120 h.
The test system of series [11] is Human immunodeficiency virus 1. Nature of the series: Antiviral activity against HIV-1 harboring reverse transcriptase K103N mutant infected in human MT4 cells assessed as protection against virus-induced cytopathic effect incubated for 5 days by MTT assay. The following applies: Human immunodeficiency virus 1, MT4, 120 h.
Series [12] relates to Human immunodeficiency virus 1. Description: Antiviral activity against HIV-1 harboring reverse transcriptase E138K mutant infected in human MT4 cells assessed as protection against virus-induced cytopathic effect incubated for 5 days by MTT assay. The following applies: Human immunodeficiency virus 1, MT4, 120 h.
For series [13], the system named is Human immunodeficiency virus 1. Nature of the series: Antiviral activity against HIV1 L1001 infected in human MT4 cells assessed as protection against virus-induced cytopathic effect incubated for 5 days by MTT assay. The following applies: Human immunodeficiency virus 1, L1001, MT4, 120 h. Format: functional, organism-based.
For series [14], the system named is Human immunodeficiency virus 1. Nature of the series: Antiviral activity against HIV-1 harboring reverse transcriptase Y181C mutant infected in human MT4 cells assessed as protection against virus-induced cytopathic effect incubated for 5 days by MTT assay. The conditions noted are these: Human immunodeficiency virus 1, MT4, 120 h.

SMILES strings stand for the structures.

Take `Cc1cc(/C=C/C#N)cc(C)c1Oc1nc(Nc2ccc(C3CCCN(S(N)(=O)=O)CC3)cc2)nc2c1COC2` (stereo unspecified): half-maximal inhibition in series [1] (IC50) was put at 90 nM.

With `Cc1cc(/C=C/C#N)cc(C)c1Nc1ccnc(Nc2ccc(C#N)cc2)n1` [RILPIVIRINE], the solubility in series [2] and in [3] was < 1 µg/mL in each case.

The molecule `Cc1cc(/C=C/C#N)cc(C)c1Oc1nc(NC2CCN(c3ccc(S(N)(=O)=O)cc3)CC2)nc2c1COC2` registered an IC50 in series [1] of 60 nM. Besides, the results for the selectivity ratio in series [4] and in series [8] were 6530 and 23, respectively. The concentration giving a half-maximal response (EC50) in [5] turned out to be 4.18 nM; in series [6], 1300 nM. For the same molecule, the 50% cytotoxic concentration (CC50) at 120 h in series [7] is 27300 nM.

Molecule `Cc1cc(/C=C/C#N)cc(C)c1Oc1nc(Nc2ccc(CN3CCN(S(C)(=O)=O)CC3)cc2)nc2c1COC2` yielded an IC50 in series [1] of 150 nM.

Regarding `Cc1cc(/C=C/C#N)cc(C)c1Oc1nc(Nc2ccc(N3CCN(S(N)(=O)=O)CC3)cc2)nc2c1COC2`, the half-maximal inhibitory concentration (IC50) in [1] is 710 nM.

Molecule `Cc1cc(/C=C/C#N)cc(C)c1Oc1nc(Nc2ccc(CN3CCN(S(N)(=O)=O)CC3)cc2)nc2c1COC2` returned an IC50 in series [1] of 280 nM.

As for `Cc1cc(C#N)cc(C)c1Oc1nc(Nc2ccc(C#N)cc2)nc(N)c1Br` [ETRAVIRINE], the EC50 is 48.7 nM in series [9]; 21.4 nM in series [10]; 72.3 nM in [6]; 4.65 nM in [11]; 15.4 nM in [12]. In addition, the selectivity ratio in [4] was > 1170; in series [8], > 64. Moreover, the solubility in series [2] and in [3] was < 1 µg/mL throughout. Besides, the CC50 at 120 h in series [7] was > 4590 nM.

For `Cc1cc(/C=C/C#N)cc(C)c1Oc1nc(NC2CCN(Cc3ccc([N+](=O)[O-])cc3)CC2)nc2c1COC2`, the IC50 in series [1] came out at 180 nM. Further, the EC50 in series [9] was 94 nM; in series [13] it was 10.4 nM; in series [5], 8.32 nM; in series [10], 60.5 nM; in series [14] it was 26.8 nM; in [6] it was 65 nM. For the same molecule, the EC50 in series [11] is 7.78 nM; in series [12] it was 21.7 nM. Moreover, the selectivity ratio in series [4] was determined as 801; in series [8], 103. The CC50 at 120 h in series [7] was 6670 nM.

In the case of `Cc1cc(/C=C/C#N)cc(C)c1Oc1nc(Nc2ccc(N3CCCC(NS(C)(=O)=O)C3)cc2)nc2c1COC2` (stereo unspecified), the IC50 in series [1] is 1240 nM.

In series [1], `Cc1cc(/C=C/C#N)cc(C)c1Oc1nc(NC2CCN(c3ccc(N)cc3)CC2)nc2c1COC2` came in with an IC50 of 180 nM. The selectivity ratio in [4] amounted to 258; in series [8], 37. For the same molecule, the EC50 came to 35.4 nM in [5] and 249 nM in series [6]. Further, the CC50 at 120 h in series [7] was 9140 nM.

In [1], `Cc1cc(/C=C/C#N)cc(C)c1Oc1nc(Nc2ccc(N3CCC(NS(N)(=O)=O)CC3)cc2)nc2c1COC2` came in with an IC50 of 1320 nM.

In the case of `Cc1cc(/C=C/C#N)cc(C)c1Oc1nc(Nc2ccc(N3CCC(NS(C)(=O)=O)CC3)cc2)nc2c1COC2`, in series [1], the IC50 worked out at 460 nM.

`Cc1cc(/C=C/C#N)cc(C)c1Oc1nc(Nc2ccc(N3CCC(NS(C)(=O)=O)C3)cc2)nc2c1COC2` (stereo unspecified) returned an IC50 in series [1] of 180 nM.

For the molecule `Cc1cc(/C=C/C#N)cc(C)c1Oc1nc(Nc2ccc(N3CCCC(NS(N)(=O)=O)C3)cc2)nc2c1COC2` (stereo unspecified), it took 780 nM to reach half-maximal inhibition in series [1] (IC50).

With `Cc1cc(/C=C/C#N)cc(C)c1Oc1nc(NC2CCN(Cc3ccc(S(C)(=O)=O)cc3)CC2)nc2c1COC2`, the IC50 in series [1] turned out to be 150 nM. Further, the EC50 in [9] came to 41.4 nM; in series [13], 5.18 nM; in [5], 4.33 nM; in [10], 16.3 nM; in series [14], 9.96 nM; in [6], 34.6 nM. For the same molecule, the EC50 in [11] came out at 6.47 nM; in series [12] it was 15.4 nM. Also, the selectivity ratio in [4] worked out at 2260; in [8] it was 283. Moreover, in [7], the CC50 at 120 h is 9790 nM.

Regarding `Cc1cc(/C=C/C#N)cc(C)c1Oc1nc(NC2CCN(c3ccc(S(C)(=O)=O)cc3)CC2)nc2c1COC2`, in series [1], the IC50 worked out at 70 nM. In addition, the values for the selectivity ratio in series [4] and in series [8] were 16500 and 87, respectively. Moreover, the EC50 in series [5] was 6.3 nM; in [6], 1200 nM. In series [7], the CC50 at 120 h amounted to 104000 nM.

For `Cc1cc(/C=C/C#N)cc(C)c1Oc1nc(NC2CCN(Cc3ccc(N)cc3)CC2)nc2c1COC2`, the half-maximal inhibitory concentration (IC50) in series [1] was determined as 190 nM. Moreover, the EC50 in series [9] turned out to be 51.4 nM; in series [13], 10.2 nM; in series [5], 3.37 nM; in [10] it was 37.6 nM; in series [14] it was 9.36 nM; in series [6], 53.5 nM. Further, the EC50 in [11] is 5.58 nM; in [12], 9.16 nM. Moreover, the selectivity ratio is 8020 in series [4] and 505 in series [8]. For the same molecule, the CC50 at 120 h in [7] was 27000 nM.

Turning to `Cc1cc(/C=C/C#N)cc(C)c1Oc1nc(Nc2ccc(C#N)cc2)nc2c1COC2`, 60 nM corresponded to half-maximal inhibition in series [1] (IC50).

Consider `Cc1cc(/C=C/C#N)cc(C)c1Oc1nc(NC2CCN(c3ccc(C(N)=O)cc3)CC2)nc2c1COC2`, for which, in series [1], the IC50 was 60 nM. Also, the selectivity ratio in series [4] is > 97900; in series [8], > 234. Further, the EC50 in series [5] was found to be 2.38 nM; in [6] it was 992 nM. Also, in series [7], the CC50 at 120 h was > 233000 nM.

Take `Cc1cc(/C=C/C#N)cc(C)c1Oc1nc(NC2CCN(Cc3ccc(C(F)(F)F)cc3)CC2)nc2c1COC2`: half-maximal inhibition in [1] (IC50) was put at 360 nM. The EC50 in series [9] came out at 282 nM; in series [13], 34.5 nM; in series [5], 19.5 nM; in series [10] it was 199 nM; in [14] it was 65.6 nM; in series [6] it was 190 nM. Also, the EC50 in series [11] amounted to 30.1 nM; in series [12], 129 nM. In addition, the results for the selectivity ratio in [4] and in series [8] were 256 and 26, respectively. For the same molecule, the CC50 at 120 h in series [7] worked out at 5010 nM.

Take `Cc1cc(/C=C/C#N)cc(C)c1Oc1nc(Nc2ccc(N3CCN(S(C)(=O)=O)CC3)cc2)nc2c1COC2`: inhibition in [1] was half-maximal at 180 nM (IC50).

In the case of `Cc1cc(/C=C/C#N)cc(C)c1Oc1nc(NC2CCN(c3ccc(NS(N)(=O)=O)cc3)CC2)nc2c1COC2`, in series [1], it took 120 nM to reach half-maximal inhibition (IC50). Moreover, the concentration giving a half-maximal response (EC50) in series [9] turned out to be 141 nM; in [13] it was 1250 nM; in series [5] it was 16.8 nM; in [10], 19.9 nM; in series [14], 46.5 nM; in series [6], 88.9 nM. Also, the EC50 in series [11] turned out to be 13.1 nM; in series [12], 34.6 nM. Also, the selectivity ratio in series [4] was 1370; in series [8], 260. Also, the CC50 at 120 h in series [7] is 23000 nM.

Molecule `Cc1cc(/C=C/C#N)cc(C)c1Oc1nc(Nc2ccc(N3CCC(NS(N)(=O)=O)C3)cc2)nc2c1COC2` (stereo unspecified) yielded an IC50 in [1] of 1060 nM.

The molecule `Cc1cc(/C=C/C#N)cc(C)c1Oc1nc(Nc2ccc(C3CCCN(S(C)(=O)=O)CC3)cc2)nc2c1COC2` (stereo unspecified) gave an IC50 in [1] of 230 nM.

For `Cc1cc(/C=C/C#N)cc(C)c1Oc1nc(NC2CCN(Cc3ccc(S(N)(=O)=O)cc3)CC2)nc2c1COC2`, in series [1], half-maximal inhibition (IC50) required 140 nM. For the same molecule, the EC50 was 38 nM in series [9]; 5.12 nM in series [13]; 6.24 nM in [5]; 11.9 nM in [10]; 7.71 nM in series [14]; 24.7 nM in series [6]. Besides, the EC50 in series [11] is 5.97 nM; in series [12], 10.3 nM. The selectivity ratio in [4] came to 2360; in series [8], 595. In addition, the CC50 at 120 h in series [7] was found to be 14700 nM.
